Read-outs that look alike come from different tables or passages of the source.
Columns and labels:
[1] = tested on: intracranial PDX GBM39 tumor xenografts; assay: Intracranial PDX GBM39 xenograft model (BLI, body weight, survival); details: monotherapy
Experimental: (A) Designs for Combination Therapy of Targeting Autophagy using NSC (150 mg/kg, Monday, Wednesday, and Friday), IR (2 Gy/day for 5 consecutive days), TMZ (100 mg/kg/day), RT+NSC, TMZ+NSC or RT+TMZ+NSC for PDX GBM39 model. (B) Body weight curves of different groups. Values represent the mean±SEM (n=8). *p<0.05, **p<0.01 compared to vehicle controls. (C) Relative changes in bioluminescent (BLI) signals of intracranial xenograft tumors with vehicle control or indicated treatment. n=8/group. *p<0.05, **p<0.01 compared to vehicle controls. Values represent the mean±SEM (n=8). *p<0.05, **p<0.01 compared to vehicle controls. (D) Representative bioluminescent images of mice-bearing intracranial xenografts with indicated treatments. NSC, IR, TMZ, and the indicated combinations. Treatments were started at day 7 post implantation. Mice were imaged after the last treatment. […] (E) Kaplan-Meier (left) and log-rank p value analyses (right) of mice bearing GSC 83 orthotopic xenografts with indicated treatments. […]
Athymic (Ncr nu/nu) mice at 6-8 week age were obtained from Taconic Farms. […] When Bioluminescent imaging (BLI) was detected in all animal, which were randomized into different treatment groups. […] Mice were monitored every day until the onset of neurological symptoms due to tumor burden. The tumor growth was monitored using the bioluminescent imaging (BLI) station (Caliper Life Sciences).

[2] = tested on: LC3B puncta in GSC M83 and JK83 cells; assay: LC3B immunofluorescence (puncta, autophagosomes); format: cell-based; details: NSC in cells treated with AZD2014
Experimental: FIG. 6. NSC enhanced the cytotoxicity of a mTORC1/2 inhibitor AZD2014 in GSCs. (A) GSC M83 and JK83 were exposed to DMSO control vs AZD2014 vs NSCs vs AZD2014 in combination with NSC for 72 hr. Cells were collected for immunoblot analysis using indicated antibodies. (B) Immunofluorescence analyses for LC3B puncta in GSC M83 and JK83 cells with indicated treatments. (C and D) GSC M83 and JK83 and/or neural progenitor cells (NPC) were treated as indicated in (A), cell viability was tested at 72 h after treatment (C), and cell apoptosis was measured by Annexin V FACS assay 48 h after treatment. Data are representative from three independent experiments with similar results.
Immunofluorescent staining. GSCs were seeded onto LabTek CC2-treated tissue culture slides (Thermo Fisher) and cultured for 24 hours. Cells were then fixed with 4% formaldehyde (Fisher) for 15 min, and permeabilized with 0.1% Triton X-100, and then blocked with AquaBlock (East Coast Bio, North Berwick, Me.) for 60 minutes. The slides were incubated with indicated primary antibodies according to the manufacturer's instructions. After being washed for three times with PBS-T, cells were incubated with secondary antibody (Alexa 488 and 594, 1:200) and DAPI-containing mounting solution Vectashield (Vector Laboratories). Cells were analyzed on a Nikon inverted microscope Eclipse Ti-U equipped with a digital camera. […]

GSC83 and GBM43 cells = assay: Cell viability / proliferation after NSC, IR, TMZ alone or combined; format: cell-based; details: NSC combined with IR or/and TMZ vs single treatments, 72 hours
[3] = Pharmacokinetic studies in mice: NSC185058 in plasma, brain and liver by LC-MS/MS; format: in vivo; details: for Cmax / AUC / half-life: plasma; for Cmax: read-out: average maximum plasma concentration (Cmax); for AUC: read-out: Area under the curve (AUC) for the plasma; for half-life: read-out: elimination half-life (converted)
Experimental: FIG. 1. NSC185058 (NSC) effectively distributes to the plasma, the brain, and the liver with minimal toxicity in mice. (A) to (C) Mice were dosed with peanut oil vehicle or ATG4B antagonists NSC185058 at doses of 10 or 50 mg/kg body weight. Plasma, the brain, and the liver tissues were collected at the indicated time points. (A) Total concentrations of the NSC compound in plasma were measured by LC-MS/MS. The PK parameter of NSC in plasma was determined. (B) NSC levels in plasma were determined form 5 min to 24 hr post dosing. The chemical structure of NSC was shown. (C) NSC levels were determined in the plasma, the brain, and the liver tissues at 0.5 and 8 hr post dosing. (D) Hematoxylin and eosin stained section s of indicated organs that were treated with NSC (150 mg/kg body weight) or vehicle on Monday, Wednesday, and Friday for three weeks. Scale bars, 50 μm. n=3 mice/group/time point.
Athymic (Ncr nu/nu) mice were injected intraperitoneal (i.p.) with peanut oil vehicle or ATG4B antagonists NSC185058 (50 mg/kg body weight for high does group and 10 mg/kg body weight for low does group). Mouse blood was withdrawn by terminal cardiac puncture while the animals were anesthetized with isoflurane. Blood samples were collected in tubes containing K2EDTA as the anticoagulant at 5, 15, and 30 minutes; 1, 2, 4, 8, and 24 hours post-dose for treatment groups. Mouse brain and liver tissue were also collected from the study animals at 1, 2, 4, and 8 hours post-dose. Control group animals were sacrificed at 24 hours after vehicle injection. Blood samples were centrifuged within one hour of collection and plasma was frozen at approximately −80° C. until analyzed at for concentration of the drug. Total concentrations of the NSC185058 compound in the plasma, the liver, and the brain were measured by LC-MS/MS at Illinois Institute of Technology Research Institute.
The NSC was administered at the dose of 10 or 50 mg/kg body weight in group of three mice. At the indicated time points spanning a 24 hrs period ([…], 0.5, 1, 2, 4, 8, and 24 hour), the plasma, the brain, and the liver tissues were collected. Plasmid and extracts from the brain and the liver were analyzed by LC-MS/MS using method developed at the Illinois Institute of Technology Research Institute (IITRI). […] Plasma exposure appears to increase beyond the hinge in dose for the dosing range tested. The elimination half-life was 2 and 4 for the 10 and 50 mg/kg dose, respectively. […] To examine whether NSC is tolerated in mouse, we investigated the effect induced by NSC in mouse behavior or by pathologic analysis of vital organs including the brain, the heart, the liver, the lung, the kidney, and the spleen. Mice underwent treatments on Monday, Wednesday, and Friday for three week with either peanut oil (vehicle) or NSC (150 mg/kg body weight) in peanut oil. […] Animal tissues were collected one week after the last dosing and subject for hematoxylin and eosin staining.

[4] = athymic Ncr nu/nu, mouse, IP 10 mg/kg
[5] = athymic Ncr nu/nu, mouse, IP 50 mg/kg

With `S=C(Nc1ccccn1)c1ccccn1` [NSC185058, N-pyridin-2-yl-pyridine-2-carbothioamide] the “survival analysis (growth-suppressive effects, FIG. 4E)” value [1] was “not IR or NSC single treatment resulted in growth-suppressive effects”, the “autophagosomes number (LC3 B immunofluorescence)” value [2] was “markedly decreased” and the tumor cell proliferation (GSC83 and GBM43 cells) was “more reduction in tumor cell proliferation cells than single treatments”. The blood-brain barrier penetration [3] was “excellent blood/brain barrier (BBB) penetration”, the Cmax ([3]; athymic Ncr nu/nu, mouse, IP single dose 10 mg/kg) was 2.6 µM and the Cmax ([3]; athymic Ncr nu/nu, mouse, IP single dose 50 mg/kg) was 33 µM. For the same molecule, the Kp ([3]; athymic Ncr nu/nu, mouse, IP, brain vs plasma, read-out: average brain tissue concentration relative to that in the plasma at the same time points) was 0.4 to 1, the concentration at 0.5 h ([3]; athymic Ncr nu/nu, mouse, brain, 50 mg/kg, 0.5 hrs post IP dose, read-out: Average brain tissue concentration) was 12000 ng/g and the concentration at 8 h ([3]; athymic Ncr nu/nu, mouse, brain, 50 mg/kg, 8 hrs post IP dose, read-out: Average brain tissue concentration) was 4100 ng/g. It also gave an AUC [3, 4] of 2140 ng·h/mL, a half-life [3, 4] of 2 h and an AUC [3, 5] of 57200 ng·h/mL. The half-life [3, 5] was 4 h and the blood-brain barrier penetration ([3]; listed as NSC) was “penetrates the tumor blood-brain barrier at sufficient levels”.

Source: US11793816B2, “Methods for enhancing cytotoxic cancer therapy through inhibition of ATG4B” (Northwestern University, priority 2019, dated 2023)
